In ChEMBL document CHEMBL3885861, “Open TG-GATES”:

Species: Rattus norvegicus
Assay: Open TG-GATES - Regimen: Single
Assay type: toxicity, organism-based, Sprague-Dawley
Parameters: regimen Single, gender Male, age 6 weeks
Details: in vivo, po, 1000 mg/kg, route gavage, dose level High; for APTT / Bas / Eos / Fbg / Hb / Ht / Lym / MCH / MCHC / MCV / Mono / Neu / PT / Plat / RBC / Ret / WBC: tissue Blood; for KIDNEY_L / KIDNEY_R / KIDNEY_TOTAL: tissue Kidney; for LIVER: tissue Liver; for A/G / ALP / ALT / AST / BUN / CRE / Ca / Cl / DBIL / GLC / IP / K / LDH / Na / PL / RALB / TBIL / TC / TG / TP / gamma-GTP: tissue Plasma

Structure (SMILES): CCOC(=O)CCC(=O)O[C@H]1[C@H](O[C@@H]2[C@@H](C)[C@H](O[C@H]3C[C@@](C)(OC)[C@@H](O)[C@H](C)O3)[C@@H](C)C(=O)O[C@H](CC)[C@@](C)(O)[C@H](O)[C@@H](C)C(=O)[C@H](C)C[C@@]2(C)O)O[C@H](C)C[C@@H]1N(C)C [ERYTHROMYCIN ETHYLSUCCINATE]
- TERMINAL_BW (3 h): 217 g
- APTT (3 h): 22.2 s
- Bas (3 h): 0%
- Eos (3 h): 1%
- Fbg (3 h): 305.8 mg/dL
- Hb (3 h): 13 g/dL
- Ht (3 h): 39.2%
- Lym (3 h): 74.6%
- MCH (3 h): 20.5 pg
- MCHC (3 h): 33.1%
- MCV (3 h): 61.8 fL
- Mono (3 h): 2.8%
- Neu (3 h): 20%
- PT (3 h): 15.4 s
- Plat (3 h): 131 x10_4/uL
- RBC (3 h): 635.4 x10_4/ul
- Ret (3 h): 8.2%
- WBC (3 h): 77.4 x10_2/uL
- KIDNEY_L (3 h): 1 g
- KIDNEY_R (3 h): 1 g
- KIDNEY_TOTAL (3 h): 1.9 g
- LIVER (3 h): 9.6 g
- A/G (3 h): 1.2
- ALP (3 h): 1535.2 IU/L
- ALT (3 h): 46 IU/L
- AST (3 h): 76.6 IU/L
- BUN (3 h): 11.8 mg/dL
- CRE (3 h): 0.1 mg/dL
- Ca (3 h): 10.4 mg/dL
- Cl (3 h): 102.4 meq/L
- DBIL (3 h): 0.014 mg/dL
- GLC (3 h): 181.2 mg/dL
- IP (3 h): 9.7 mg/dL
- K (3 h): 3.7 meq/L
- LDH (3 h): 158.4 IU/L
- Na (3 h): 138 meq/L
- PL (3 h): 143.8 mg/dL
- RALB (3 h): 2.9 g/dL
- TBIL (3 h): 0.05 mg/dL
- TC (3 h): 74.2 mg/dL
- TG (3 h): 40 mg/dL
- TP (3 h): 5.4 g/dL
- gamma-GTP (3 h): 1 IU/L
- TERMINAL_BW (6 h): 219.9 g
- APTT (6 h): 23.4 s
- Bas (6 h): 0%
- Eos (6 h): 1%
- Fbg (6 h): 315 mg/dL
- Hb (6 h): 13.3 g/dL
- Ht (6 h): 40.7%
- Lym (6 h): 73.2%
- MCH (6 h): 20.6 pg
- MCHC (6 h): 32.8%
- MCV (6 h): 62.9 fL
- Mono (6 h): 3.2%
- Neu (6 h): 21%
- PT (6 h): 15.7 s
- Plat (6 h): 134.9 x10_4/uL
- RBC (6 h): 647.6 x10_4/ul
- Ret (6 h): 7.9%
- WBC (6 h): 93.4 x10_2/uL
- KIDNEY_L (6 h): 1 g
- KIDNEY_R (6 h): 1.1 g
- KIDNEY_TOTAL (6 h): 2.1 g
- LIVER (6 h): 9.1 g
- A/G (6 h): 1.2
- ALP (6 h): 1632.2 IU/L
- ALT (6 h): 45.8 IU/L
- AST (6 h): 79.8 IU/L
- BUN (6 h): 10.2 mg/dL
- CRE (6 h): 0.1 mg/dL
- Ca (6 h): 10.6 mg/dL
- Cl (6 h): 104 meq/L
- DBIL (6 h): 0.012 mg/dL
- GLC (6 h): 176.8 mg/dL
- IP (6 h): 10 mg/dL
- K (6 h): 4 meq/L
- LDH (6 h): 180 IU/L
- Na (6 h): 138.8 meq/L
- PL (6 h): 140.4 mg/dL
- RALB (6 h): 2.9 g/dL
- TBIL (6 h): 0.046 mg/dL
- TC (6 h): 68.4 mg/dL
- TG (6 h): 43.4 mg/dL
- TP (6 h): 5.4 g/dL
- gamma-GTP (6 h): 1.4 IU/L
- TERMINAL_BW (9 h): 213.4 g
- APTT (9 h): 23.1 s
- Bas (9 h): 0%
- Eos (9 h): 1%
- Fbg (9 h): 304.8 mg/dL
- Hb (9 h): 13.5 g/dL
- Ht (9 h): 40.8%
- Lym (9 h): 76.2%
- MCH (9 h): 20.8 pg
- MCHC (9 h): 33.1%
- MCV (9 h): 62.8 fL
- Mono (9 h): 2.6%
- Neu (9 h): 19.8%
- PT (9 h): 15.4 s
- Plat (9 h): 121.3 x10_4/uL
- RBC (9 h): 650.4 x10_4/ul
- Ret (9 h): 7.2%
- WBC (9 h): 67.2 x10_2/uL
- KIDNEY_L (9 h): 1 g
- KIDNEY_R (9 h): 1 g
- KIDNEY_TOTAL (9 h): 2 g
- LIVER (9 h): 8.5 g
- A/G (9 h): 1.2
- ALP (9 h): 1688.2 IU/L
- ALT (9 h): 40.4 IU/L
- AST (9 h): 73 IU/L
- BUN (9 h): 9 mg/dL
- CRE (9 h): 0.1 mg/dL
- Ca (9 h): 10.5 mg/dL
- Cl (9 h): 105.8 meq/L
- DBIL (9 h): 0 mg/dL
- GLC (9 h): 173.8 mg/dL
- IP (9 h): 9.7 mg/dL
- K (9 h): 4.2 meq/L
- LDH (9 h): 169.2 IU/L
- Na (9 h): 139.2 meq/L
- PL (9 h): 144.4 mg/dL
- RALB (9 h): 3 g/dL
- TBIL (9 h): 0.036 mg/dL
- TC (9 h): 69.2 mg/dL
- TG (9 h): 54.4 mg/dL
- TP (9 h): 5.5 g/dL
- gamma-GTP (9 h): 1 IU/L
- TERMINAL_BW (24 h): 227.7 g
- APTT (24 h): 20.2 s
- Bas (24 h): 0%
- Eos (24 h): 1%
- Fbg (24 h): 337.4 mg/dL
- Hb (24 h): 13.9 g/dL
- Ht (24 h): 41.8%
- Lym (24 h): 85.4%
- MCH (24 h): 20.9 pg
- MCHC (24 h): 33.2%
- MCV (24 h): 62.8 fL
- Mono (24 h): 3%
- Neu (24 h): 8.8%
- PT (24 h): 16.3 s
- Plat (24 h): 125.6 x10_4/uL
- RBC (24 h): 666 x10_4/ul
- Ret (24 h): 7.1%
- WBC (24 h): 93.9 x10_2/uL
- KIDNEY_L (24 h): 1 g
- KIDNEY_R (24 h): 1 g
- KIDNEY_TOTAL (24 h): 2 g
- LIVER (24 h): 9.4 g
- A/G (24 h): 1.2
- ALP (24 h): 1448.8 IU/L
- ALT (24 h): 34 IU/L
- AST (24 h): 66.4 IU/L
- BUN (24 h): 16.8 mg/dL
- CRE (24 h): 0.1 mg/dL
- Ca (24 h): 10.6 mg/dL
- Cl (24 h): 107.6 meq/L
- DBIL (24 h): 0 mg/dL
- GLC (24 h): 197.8 mg/dL
- IP (24 h): 9 mg/dL
- K (24 h): 4.3 meq/L
- LDH (24 h): 209.6 IU/L
- Na (24 h): 142.8 meq/L
- PL (24 h): 139.6 mg/dL
- RALB (24 h): 3 g/dL
- TBIL (24 h): 0.024 mg/dL
- TC (24 h): 86.6 mg/dL
- TG (24 h): 53.2 mg/dL
- TP (24 h): 5.6 g/dL
- gamma-GTP (24 h): 1.2 IU/L
